Consider one substance from patent US20060052311A1, “Peptide inhibitors of smac protein binding to inhibitor of apoptosis proteins (IAP)” (priority 2002, published 2006).

This assay deals with GST-BIR3 fusion protein. Briefly: FMAT solution phase assay: competition of GST-BIR3 off beads carrying biotinylated Smac 7-mer peptide. In kind it is binding. To be noted: competing GST-BIR3 off beads with immobilized biotinylated Smac 7-mer peptide (AVPIAQK). The method, then: In order to measure the ability of the inventive compounds to bind the BIR3 peptide binding pocket, a solution phase assay on the FMAT technology platform is utilized. Biotinylated Smac 7-mer peptide (AVPIAQK, lysine ε-amino group is biotinylated) is immobilized on streptavidin coated beads. GST-BIR3 fusion protein is precipitated with FMAT beads and is detected using fluorescent tagged anti-GST antibodies. […] The IC50 for non-biotinylated Smac is 400 nM.

One may read the IC50 as the concentration that inhibits the measured activity by half. For the substance “non-biotinylated Smac: Non-biotinylated Smac peptide; the biotinylated bead-bound form is the Smac 7-mer AVPIAQK”, the IC50 is 400 nM.
